# System: PC-3-KQ and PC-3-KR cells
# Assay: RNA-sequencing and differential gene expression
# Format: cell-based, human
compound,measurement,setting,value
CC(=O)Oc1ccccc1C(=O)Nc1ncc([N+](=O)[O-])s1 [Nitazoxanide],SERPINA5 Change (KQ-Control vs KQ-NTZ),"RNA-Seq, PC-3-KQ cells",DOWN
same,SERPINA5 logFC (KQ-Control vs KQ-NTZ),"RNA-Seq, PC-3-KQ cells",-0.8689
same,SERPINB3 Change (KQ-Control vs KQ-NTZ),"RNA-Seq, PC-3-KQ cells",DOWN
same,SERPINB3 logFC (KQ-Control vs KQ-NTZ),"RNA-Seq, PC-3-KQ cells",-1.6793
same,SERPINB4 Change (KQ-Control vs KQ-NTZ),"RNA-Seq, PC-3-KQ cells",DOWN
same,SERPIND1 Change (KQ-Control vs KQ-NTZ),"RNA-Seq, PC-3-KQ cells",DOWN
same,SERPIND1 logFC (KQ-Control vs KQ-NTZ),"RNA-Seq, PC-3-KQ cells",-1.1652
same,SGK1 Change (KQ-Control vs KQ-NTZ),"RNA-Seq, PC-3-KQ cells",DOWN
same,SGK1 logFC (KQ-Control vs KQ-NTZ),"RNA-Seq, PC-3-KQ cells",-0.7813
same,SHISA3 Change (KQ-Control vs KQ-NTZ),"RNA-Seq, PC-3-KQ cells",DOWN
same,SHISA3 logFC (KQ-Control vs KQ-NTZ),"RNA-Seq, PC-3-KQ cells",-0.8421
same,SLC22A4 Change (KQ-Control vs KQ-NTZ),"RNA-Seq, PC-3-KQ cells",DOWN
same,SLC22A4 logFC (KQ-Control vs KQ-NTZ),"RNA-Seq, PC-3-KQ cells",-0.8073
same,SLC26A9 Change (KQ-Control vs KQ-NTZ),"RNA-Seq, PC-3-KQ cells",DOWN
same,SLC26A9 logFC (KQ-Control vs KQ-NTZ),"RNA-Seq, PC-3-KQ cells",-0.6605
same,SLC45A2 Change (KQ-Control vs KQ-NTZ),"RNA-Seq, PC-3-KQ cells",DOWN
same,SLC45A2 logFC (KQ-Control vs KQ-NTZ),"RNA-Seq, PC-3-KQ cells",-0.7358
same,SLITRK5 Change (KQ-Control vs KQ-NTZ),"RNA-Seq, PC-3-KQ cells",DOWN
same,SLITRK5 logFC (KQ-Control vs KQ-NTZ),"RNA-Seq, PC-3-KQ cells",-0.708
same,SVEP1 Change (KQ-Control vs KQ-NTZ),"RNA-Seq, PC-3-KQ cells",DOWN
same,SVEP1 logFC (KQ-Control vs KQ-NTZ),"RNA-Seq, PC-3-KQ cells",-1.4829
same,TCN1 Change (KQ-Control vs KQ-NTZ),"RNA-Seq, PC-3-KQ cells",DOWN
same,TCN1 logFC (KQ-Control vs KQ-NTZ),"RNA-Seq, PC-3-KQ cells",-0.7528
same,TENM4 Change (KQ-Control vs KQ-NTZ),"RNA-Seq, PC-3-KQ cells",DOWN
same,TENM4 logFC (KQ-Control vs KQ-NTZ),"RNA-Seq, PC-3-KQ cells",-0.7441
same,TIMM8A Change (KQ-Control vs KQ-NTZ),"RNA-Seq, PC-3-KQ cells",DOWN
same,TNF Change (KQ-Control vs KQ-NTZ),"RNA-Seq, PC-3-KQ cells",DOWN
same,TNF logFC (KQ-Control vs KQ-NTZ),"RNA-Seq, PC-3-KQ cells",-0.6786
same,TNFRSF6B Change (KQ-Control vs KQ-NTZ),"RNA-Seq, PC-3-KQ cells",DOWN
same,TNFRSF6B logFC (KQ-Control vs KQ-NTZ),"RNA-Seq, PC-3-KQ cells",-0.5861
same,TNFRSF11B Change (KQ-Control vs KQ-NTZ),"RNA-Seq, PC-3-KQ cells",DOWN
same,TNFRSF11B logFC (KQ-Control vs KQ-NTZ),"RNA-Seq, PC-3-KQ cells",-2.1243
same,TSPAN18 Change (KQ-Control vs KQ-NTZ),"RNA-Seq, PC-3-KQ cells",DOWN
same,TSPAN18 logFC (KQ-Control vs KQ-NTZ),"RNA-Seq, PC-3-KQ cells",-0.7268
same,TTC30A Change (KQ-Control vs KQ-NTZ),"RNA-Seq, PC-3-KQ cells",DOWN
same,TTC30A logFC (KQ-Control vs KQ-NTZ),"RNA-Seq, PC-3-KQ cells",-0.7519
same,TTC30B Change (KQ-Control vs KQ-NTZ),"RNA-Seq, PC-3-KQ cells",DOWN
same,TTC30B logFC (KQ-Control vs KQ-NTZ),"RNA-Seq, PC-3-KQ cells",-0.6538
same,XKRX Change (KQ-Control vs KQ-NTZ),"RNA-Seq, PC-3-KQ cells",DOWN
same,XKRX logFC (KQ-Control vs KQ-NTZ),"RNA-Seq, PC-3-KQ cells",-0.6274
same,ZFPM2 Change (KQ-Control vs KQ-NTZ),"RNA-Seq, PC-3-KQ cells",DOWN
same,ZFPM2 logFC (KQ-Control vs KQ-NTZ),"RNA-Seq, PC-3-KQ cells",-1.4661
same,ZNF28 Change (KQ-Control vs KQ-NTZ),"RNA-Seq, PC-3-KQ cells",DOWN
same,ZNF28 logFC (KQ-Control vs KQ-NTZ),"RNA-Seq, PC-3-KQ cells",-0.6433
same,ZNF302 Change (KQ-Control vs KQ-NTZ),"RNA-Seq, PC-3-KQ cells",DOWN
same,ZNF302 logFC (KQ-Control vs KQ-NTZ),"RNA-Seq, PC-3-KQ cells",-1.2333
same,"logFC, gene ABCB11","RNA-Seq, PC-3-KQ cells, KQ-Control vs KQ-NTZ, gene ABCB11",-0.7396
same,"logFC, gene C5orf63","RNA-Seq, PC-3-KQ cells, KQ-Control vs KQ-NTZ, gene C5orf63",-1.615
same,"logFC, gene C11orf65","RNA-Seq, PC-3-KQ cells, KQ-Control vs KQ-NTZ, gene C11orf65",-0.9307
same,"logFC, gene CELF3","RNA-Seq, PC-3-KQ cells, KQ-Control vs KQ-NTZ, gene CELF3",-0.8233
same,"logFC, gene LOC107985532","RNA-Seq, PC-3-KQ cells, KQ-Control vs KQ-NTZ, gene LOC107985532",-0.9452
same,"logFC, gene MROH8","RNA-Seq, PC-3-KQ cells, KQ-Control vs KQ-NTZ, gene MROH8",-0.9801
same,"logFC, gene RLN1","RNA-Seq, PC-3-KQ cells, KQ-Control vs KQ-NTZ, gene RLN1",-1.0231
same,"logFC, gene RP1L1","RNA-Seq, PC-3-KQ cells, KQ-Control vs KQ-NTZ, gene RP1L1",-0.9422
same,"logFC, gene SAXO2","RNA-Seq, PC-3-KQ cells, KQ-Control vs KQ-NTZ, gene SAXO2",-0.8856
same,"logFC, gene TNFAIP8L2-SCNM1","RNA-Seq, PC-3-KQ cells, KQ-Control vs KQ-NTZ, gene TNFAIP8L2-SCNM1",-0.9389
same,"logFC, gene ZNF154","RNA-Seq, PC-3-KQ cells, KQ-Control vs KQ-NTZ, gene ZNF154",-0.8416
same,"logFC, gene ZNF596","RNA-Seq, PC-3-KQ cells, KQ-Control vs KQ-NTZ, gene ZNF596",-0.9026
same,"Change (KQ-Control vs KQ-NTZ), gene ABCB11","RNA-Seq, PC-3-KQ cells, gene ABCB11",DOWN
same,"Change (KQ-Control vs KQ-NTZ), gene C5orf63","RNA-Seq, PC-3-KQ cells, gene C5orf63",DOWN
same,"Change (KQ-Control vs KQ-NTZ), gene C11orf65","RNA-Seq, PC-3-KQ cells, gene C11orf65",DOWN
same,"Change (KQ-Control vs KQ-NTZ), gene CELF3","RNA-Seq, PC-3-KQ cells, gene CELF3",DOWN
same,"Change (KQ-Control vs KQ-NTZ), gene LOC107985532","RNA-Seq, PC-3-KQ cells, gene LOC107985532",DOWN
same,"Change (KQ-Control vs KQ-NTZ), gene MROH8","RNA-Seq, PC-3-KQ cells, gene MROH8",DOWN
same,"Change (KQ-Control vs KQ-NTZ), gene RLN1","RNA-Seq, PC-3-KQ cells, gene RLN1",DOWN
same,"Change (KQ-Control vs KQ-NTZ), gene RP1L1","RNA-Seq, PC-3-KQ cells, gene RP1L1",DOWN
same,"Change (KQ-Control vs KQ-NTZ), gene SAXO2","RNA-Seq, PC-3-KQ cells, gene SAXO2",DOWN
same,"Change (KQ-Control vs KQ-NTZ), gene TNFAIP8L2-SCNM1","RNA-Seq, PC-3-KQ cells, gene TNFAIP8L2-SCNM1",DOWN
same,"Change (KQ-Control vs KQ-NTZ), gene ZNF154","RNA-Seq, PC-3-KQ cells, gene ZNF154",DOWN
same,"Change (KQ-Control vs KQ-NTZ), gene ZNF596","RNA-Seq, PC-3-KQ cells, gene ZNF596",DOWN
same,change of NTZ treatment,gene AADACL3,down
same,change of NTZ treatment,gene ABAT,up
same,change of NTZ treatment,gene ADIRF,up
same,logFC,"gene ADIRF, KQ-Control vs KQ-NTZ",0.6207
same,logFC,"gene AKR1B1, KQ-Control vs KQ-NTZ",1.237
same,change of NTZ treatment,gene AKR1C1,up
same,logFC,"gene AKR1C1, KQ-Control vs KQ-NTZ",1.37
same,change of NTZ treatment,gene AKR1C3,up
same,change of NTZ treatment,gene ANG,up
same,logFC,"gene ANG, KQ-Control vs KQ-NTZ",1.354

# From article PMC9945734 (BMC Medicine, 2023)
